The values that follow come from patent US20070249701A1, “Cyclic amine CCR5 receptor antagonists” (TEIJIN LIMITED, priority 1999, published 2007).

The assay concerns the target T1, human CCR5 (Homo sapiens, UniProt P51681).
T1 construct: expressed in transfected cells; host or cells: CHO cells
The assay is described as follows: Inhibition of binding of [125I]-labeled MIP-1β to membrane fraction of CHO cells expressing human CCR5. As to conditions: at a concentration of 10 μM, [125I]-MIP-1β 0.1 to 0.5 nM, read-out: inhibitory activity against binding of human MIP-1β to the membrane fraction of the cells expressing CCR5, Inhibition(%). The protocol: Measurement of Inhibitory Activity of a Compound Against Binding of [^125I]-Labeled MIP-1β to Membrane Fraction of the Cells Expressing CCR5
To a 96-well plate made of polystyrene, were respectively added 20 μL of a solution prepared by diluting each test compound with an assay buffer (50 mM HEPES, pH 7.4, 5 mM MgCl2, 1 mM CaCl2, 0.2% BSA), 25 μL of a solution obtained by diluting [^125I]-labeled MIP-1β (NEN Life Science Products, Inc.) with the assay buffer so as to provide 0.1 to 0.5 nM and 155 μL (including 4 μg of the membrane fraction) of a suspension prepared by suspending a membrane fraction of CHO cells expressing human CCR5 (the final volume of the reaction solution: 200 μL). […]
After completing the reaction, the reaction suspension was filtered through Filtermate (Packard Instrument Co.), and the filter washed with 250 μL of a precooled washing buffer (10 mM HEPES, pH 7.4, 0.5 M NaCl) nine times. […] The radioactivity was counted using TopCount NXT (Packard Instrument Co.).
The count when 0.2 μM of human MIP-1α instead of the test compound was added was subtracted as nonspecific binding, and the count when the test compound was not added was taken as 100%. Thereby, the inhibitory activity of the test compound against binding of the human MIP-1β to the membrane fraction of the cells expressing CCR5 was calculated. […]

The structures appear in SMILES notation.

T1 sequence (P51681 whole entry): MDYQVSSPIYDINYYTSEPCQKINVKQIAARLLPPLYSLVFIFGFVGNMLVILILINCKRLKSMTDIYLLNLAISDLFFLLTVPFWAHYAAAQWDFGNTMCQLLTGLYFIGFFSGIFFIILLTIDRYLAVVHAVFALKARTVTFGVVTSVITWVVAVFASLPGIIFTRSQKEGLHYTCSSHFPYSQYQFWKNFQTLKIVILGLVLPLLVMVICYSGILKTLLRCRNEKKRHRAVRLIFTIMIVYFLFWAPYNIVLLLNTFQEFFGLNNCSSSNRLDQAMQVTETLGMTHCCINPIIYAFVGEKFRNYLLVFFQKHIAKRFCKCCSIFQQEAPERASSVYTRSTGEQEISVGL

One may read the inhibition as the change of the read-out against control, counted positive when it falls. Take `O=C(CNC(=O)c1cccc(SC(F)(F)F)c1)N[C@@H]1CCN(Cc2ccc(Cl)cc2)C1` [Compd. No. 1606, (R)-1-(4-chlorobenzyl)-3-[{N-(3-(trifluoromethylthio)benzoyl)glycyl}amino]pyrrolidine]: the inhibition at 10 µM lay in the range of 20 to 50%.
